Assay results reported in patent publication US6479435B1, “Diaryl ethers and processes for their preparation and herbicidal and desiccant compositions containing them” (ISK Americas Incorporated, priority 1997, dated 2002).

What was measured:
Assay type in all cases: in vivo
[1] = tested on: Johnsongrass (Sorghum halepense, SORHA); assay: Pre-emerge greenhouse herbicide test, phytotoxicity rating; conditions: 14 days after application, rating scale 0-100
How it was run: (§1)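 Visual 0–100 injury rating (100 = all plants dead) taken 14 days after treatment. Rates of 125–1000 g ai/ha in acetone, 187 l/ha, were sprayed onto soil one day post-sowing; pots were surface-watered to incorporate, then bottom-watered.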

[2] = tested on: barnyardgrass (Echinochloa crusgalli, ECHCG); assay: as above; conditions: 14 days after application, rating scale 0-100
How it was run: as §1

[3] = tested on: common ragweed (Ambrosia artemisiifolia L., AMBEL); assay: as above; conditions: 14 days after application, rating scale 0-100
How it was run: as §1

[4] = tested on: green foxtail (Setaria viridis, SETVI); assay: as above; conditions: 14 days after application, rating scale 0-100
How it was run: as §1

[5] = tested on: ivyleaf morningglory (Ipomoea hederacea, IPOHE); assay: as above; conditions: 14 days after application, rating scale 0-100
How it was run: as §1

[6] = tested on: lambsquarters (Chenopodium album, CHEAL); assay: as above; conditions: 14 days after application, rating scale 0-100
How it was run: as §1

[7] = tested on: large crabgrass (Digitaria sanguinalis, DIGSA); assay: as above; conditions: 14 days after application, rating scale 0-100
How it was run: as §1

[8] = tested on: redroot pigweed (Amaranthus retroflexus, AMARE); assay: as above; conditions: 14 days after application, rating scale 0-100
How it was run: as §1

[9] = tested on: sicklepod (Cassia obtusifolia, CASOB); assay: as above; conditions: 14 days after application, rating scale 0-100
How it was run: as §1

[10] = tested on: velvetleaf (Abutilon theophrasti, ABUTH); assay: as above; conditions: 14 days after application, rating scale 0-100
How it was run: as §1

[11] = tested on: field corn (Zea mays L., var. Dekalb 535, CORN); assay: Pre-emerge greenhouse test, crop damage rating; conditions: 14 days after application, rating scale 0-100
How it was run: as §1

[12] = tested on: upland rice (Oryza sp., var.Tebonnet, RICE); assay: Pre-emerge greenhouse test, crop damage rating; conditions: 14 days after application, rating scale 0-100
How it was run: as §1

[13] = tested on: soybean (Glycine max L., var. Pella 86, SOY); assay: Pre-emerge greenhouse test, crop damage rating; conditions: 14 days after application, rating scale 0-100
How it was run: as §1

[14] = tested on: common ragweed (Ambrosia artemisiifolia L., AMBEL); assay: Post-emerge greenhouse herbicide test, phytotoxicity rating; conditions: 14 days after application
How it was run: (§2)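 Scores use a 0 (no damage) to 100 (complete kill) scale, taken 14 days after a foliar spray. Acetone solutions with 0.25% v/v non-ionic surfactant were applied by track sprayer at 187 l/ha and 63-1000 g ai/ha to bottom-watered 2-3 leaf plants.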

[15] = tested on: Johnsongrass (Sorghum halepense, SORHA); assay: as above; conditions: 14 days after application
How it was run: as §2

[16] = tested on: barnyardgrass (Echinochloa crusgalli, ECHCG); assay: as above; conditions: 14 days after application
How it was run: as §2

[17] = tested on: green foxtail (Setaria viridis, SETVI); assay: as above; conditions: 14 days after application
How it was run: as §2

[18] = tested on: ivyleaf morningglory (Ipomoea hederacea, IPOHE); assay: as above; conditions: 14 days after application
How it was run: as §2

[19] = tested on: lambsquarters (Chenopodium album, CHEAL); assay: as above; conditions: 14 days after application
How it was run: as §2

[20] = tested on: large crabgrass (Digitaria sanguinalis, DIGSA); assay: as above; conditions: 14 days after application
How it was run: as §2

[21] = tested on: redroot pigweed (Amaranthus retroflexus, AMARE); assay: as above; conditions: 14 days after application
How it was run: as §2

[22] = tested on: sicklepod (Cassia obtusifolia, CASOB); assay: as above; conditions: 14 days after application
How it was run: as §2

[23] = tested on: velvetleaf (Abutilon theophrasti, ABUTH); assay: as above; conditions: 14 days after application
How it was run: as §2

[24] = tested on: field corn (Zea mays L., var. Dekalb 535, CORN); assay: Post-emerge greenhouse test, crop damage rating; conditions: 14 days after application
How it was run: as §2

[25] = tested on: upland rice (Oryza sp., var.Tebonnet, RICE); assay: Post-emerge greenhouse test, crop damage rating; conditions: 14 days after application
How it was run: as §2

[26] = tested on: soybean (Glycine max L., var. Pella 86, SOY); assay: Post-emerge greenhouse test, crop damage rating; conditions: 14 days after application
How it was run: as §2

SMILES: CCN1CC(=O)N(c2cc(Oc3ncccn3)c(Cl)cc2F)C1=O [Compound 8-2]
- phytotoxicity rating SORHA ([1]; 125 g ai/ha): 20
- phytotoxicity rating SORHA ([1]; 500 g ai/ha): 100
- phytotoxicity rating ECHCG ([2]; 125 g ai/ha): 10
- phytotoxicity rating ECHCG ([2]; 500 g ai/ha): 100
- phytotoxicity rating AMBEL ([3]; 125 g ai/ha): 95
- phytotoxicity rating AMBEL ([3]; 500 g ai/ha): 100
- phytotoxicity rating SETVI ([4]; 125 g ai/ha): 95
- phytotoxicity rating SETVI ([4]; 500 g ai/ha): 100
- phytotoxicity rating IPOHE ([5]; 125 g ai/ha): 100
- phytotoxicity rating IPOHE ([5]; 500 g ai/ha): 100
- phytotoxicity rating CHEAL ([6]; 125 g ai/ha): 100
- phytotoxicity rating CHEAL ([6]; 500 g ai/ha): 100
- phytotoxicity rating DIGSA ([7]; 125 g ai/ha): 90
- phytotoxicity rating DIGSA ([7]; 500 g ai/ha): 100
- phytotoxicity rating AMARE ([8]; 125 g ai/ha): 100
- phytotoxicity rating AMARE ([8]; 500 g ai/ha): 100
- phytotoxicity rating CASOB ([9]; 125 g ai/ha): 0
- phytotoxicity rating CASOB ([9]; 500 g ai/ha): 80
- phytotoxicity rating ABUTH ([10]; 125 g ai/ha): 100
- phytotoxicity rating ABUTH ([10]; 500 g ai/ha): 100
- crop damage rating CORN ([11]; 125 g ai/ha): 0
- crop damage rating CORN ([11]; 500 g ai/ha): 50
- crop damage rating RICE ([12]; 125 g ai/ha): 40
- crop damage rating RICE ([12]; 500 g ai/ha): 90
- crop damage rating SOY ([13]; 125 g ai/ha): 0
- crop damage rating SOY ([13]; 500 g ai/ha): 20
- AMBEL phytotoxicity rating (0-100) ([14]; 63 g al/ha): 30
- AMBEL phytotoxicity rating (0-100) ([14]; 500 g al/ha): 95
- SORHA phytotoxicity rating (0-100) ([15]; 63 g al/ha): 0
- SORHA phytotoxicity rating (0-100) ([15]; 500 g al/ha): 20
- ECHCG phytotoxicity rating (0-100) ([16]; 63 g al/ha): 10
- ECHCG phytotoxicity rating (0-100) ([16]; 500 g al/ha): 50
- SETVI phytotoxicity rating (0-100) ([17]; 63 g al/ha): 10
- SETVI phytotoxicity rating (0-100) ([17]; 500 g al/ha): 30
- IPOHE phytotoxicity rating (0-100) ([18]; 63 g al/ha): 70
- IPOHE phytotoxicity rating (0-100) ([18]; 500 g al/ha): 100
- CHEAL phytotoxicity rating (0-100) ([19]; 63 g al/ha): 80
- CHEAL phytotoxicity rating (0-100) ([19]; 500 g al/ha): 100
- DIGSA phytotoxicity rating (0-100) ([20]; 63 g al/ha): 0
- DIGSA phytotoxicity rating (0-100) ([20]; 500 g al/ha): 20
- AMARE phytotoxicity rating (0-100) ([21]; 63 g al/ha): 60
- AMARE phytotoxicity rating (0-100) ([21]; 500 g al/ha): 100
- CASOB phytotoxicity rating (0-100) ([22]; 63 g al/ha): 20
- CASOB phytotoxicity rating (0-100) ([22]; 500 g al/ha): 50
- ABUTH phytotoxicity rating (0-100) ([23]; 63 g al/ha): 60
- ABUTH phytotoxicity rating (0-100) ([23]; 500 g al/ha): 100
- CORN crop damage rating (0-100) ([24]; 63 g al/ha): 5
- CORN crop damage rating (0-100) ([24]; 500 g al/ha): 15
- RICE crop damage rating (0-100) ([25]; 63 g al/ha): 0
- RICE crop damage rating (0-100) ([25]; 500 g al/ha): 70
- SOY crop damage rating (0-100) ([26]; 63 g al/ha): 10
- SOY crop damage rating (0-100) ([26]; 500 g al/ha): 90
